Source: the supplement of paper PMC12317010
Where a name gives a salt, the structure may show the parent alone.

Assay: collision cross section in nitrogen (drift tube, single-field); higher = larger gas-phase ion size
[1] = ion type: [M-H], ion source: ESI, ion mode: Negative
[2] = ion type: [M+H], ion source: APCI, ion mode: Positive
[3] = ion type: [M+H], ion source: ESI, ion mode: Positive
[4] = ion type: [M+Na], ion source: ESI, ion mode: Positive
[5] = ion type: [M+], ion source: APCI, ion mode: Positive
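Also: chemical standards at 10 µM analysed by drift tube IMS-QTOF MS in about 3.95 torr nitrogen, mean of duplicate injections differing ≤1%, mass error below 10 ppm.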

Structure (SMILES)	collision cross section in nitrogen [1] [Å²]	collision cross section in nitrogen [2] [Å²]	collision cross section in nitrogen [3] [Å²]	collision cross section in nitrogen [4] [Å²]	other results
Oc1c(Cl)cc(Cl)c(Cl)c1Cc1c(O)c(Cl)cc(Cl)c1Cl [Hexachlorophene]	174.4				
CCCCC(O)(Cn1cncn1)c1ccc(Cl)cc1Cl (stereo not given) [Hexaconazole]		174.6	173.5	187	
CCCCCCCCCCCCCCCC(=O)O [Hexadecanoic acid]	169.2				
CCCCCCCCCCCCCCCC[N+](C)(C)C [Hexadecyltrimethylammonium bromide]					collision cross section in nitrogen (ion source: APCI, ion mode: Positive, ion type: [M]+ (permanent cation)): 193.1 Å²; collision cross section in nitrogen (ion source: ESI, ion mode: Positive, ion type: [M]+ (permanent cation)): 195.1 Å²
C=CC(=O)N1CN(C(=O)C=C)CN(C(=O)C=C)C1 [Hexahydro-1,3,5-tris(1-oxoallyl)-1,3,5-triazine]				160.1	
CN(C)P(=O)(N(C)C)N(C)C [Hexamethylphosphoramide]		134.4	135.3	152.8	
O=C(OCCCCCCOC(=O)c1ccccc1)c1ccccc1 [Hexane-1,6-diyl dibenzoate]				189.8	
NNC(=O)CCCCC(=O)NN [Hexanedihydrazide]	138.4			141.5	
O=C(O)CCCCC(=O)O [Hexanedioic acid]	127.9				
CN(C)c1nc(=O)n(C2CCCCC2)c(=O)n1C [Hexazinone]		163	162.8	176.3	
CC[C@H](c1ccc(O)cc1)[C@@H](CC)c1ccc(O)cc1 [Hexestrol]	177.2				
CCCCCCOC(=O)CCC [Hexyl butyrate]	149.7				
CCCCCCOC(=O)CC [Hexyl propanoate]	146.3				
CCCCCCOC(=O)c1ccc(O)cc1 [Hexylparaben]	161.1				
CC1(C)CN=C(NN=C(C=Cc2ccc(C(F)(F)F)cc2)C=Cc2ccc(C(F)(F)F)cc2)NC1 [Hydramethylnon]	234.7	239.4	240.6	250.1	collision cross section in nitrogen [5]: 226.3 Å²
O=C(O)CCc1ccccc1 [Hydrocinnamic acid]	139				
CC(C)(O)C(=O)Nc1ccc([N+](=O)[O-])c(C(F)(F)F)c1 [Hydroxyflutamide]	157.4				
O=S(O)CO [Hydroxymethanesulfinic acid monosodium salt dihydrate]	112.7				
OCCOCCN1CCN(C(c2ccccc2)c2ccc(Cl)cc2)CC1 (stereo not given) [Hydroxyzine hydrochloride]		197.7	197.2	195.7	

Structure (SMILES)	collision cross section in nitrogen [1] [Å²]	collision cross section in nitrogen [2] [Å²]	collision cross section in nitrogen [3] [Å²]	collision cross section in nitrogen [4] [Å²]	other results
CCC(C)OC(=O)N1CCCCC1CCO (stereo not given) [Icaridin]				166.5	
O=P1(NCCCl)OCCCN1CCCl (stereo not given) [Ifosfamide]		148.1	148.8	158.1	
CCCCCCCCCc1ccc(OCCOCCO)cc1 [Igepal CO-210]				191.3	
CC(=O)S[C@H](C(=O)N[C@H]1Cc2ccccc2[C@H]2CCC[C@@H](C(=O)O)N2C1=O)C(C)C [Ilepatril]	193.7	195.4	194.9	198.7	
C=CCOC(Cn1ccnc1)c1ccc(Cl)cc1Cl (stereo not given) [Imazalil]		167.9	167.9		
COCc1cnc(C2=NC(C)(C(C)C)C(=O)N2)c(C(=O)O)c1 (stereo not given) [Imazamox]	178.2	172.2	172.4	188.9	
Cc1cnc(C2=NC(=O)C(C)(C(C)C)N2)c(C(=O)O)c1 (stereo not given) [Imazapic]	168.3	162.2	162.4	178.8	
CC(C)C1(C)N=C(c2ncccc2C(=O)O)NC1=O (stereo not given) [Imazapyr]	161.8	156.5	156.7	173.1	
CC(C)C1(C)N=C(c2nc3ccccc3cc2C(=O)O)NC1=O (stereo not given) [Imazaquin]	176.9	171.7	171.7	188.4	
O=[N+]([O-])/N=C1\NCCN1Cc1ccc(Cl)nc1 [Imidacloprid]	157.3		156	159.5	
O=C(NCNC(=O)NC1C(=O)NC(=O)N1CO)NC1C(=O)NC(=O)N1CO (stereo not given) [Imidazolidinyl urea]				183.4	
CN(C)CCCN1c2ccccc2CCc2ccccc21 [Imipramine hydrochloride]		165.8	166	172.7	
CC1Cc2ccccc2N1NC(=O)c1ccc(Cl)c(S(N)(=O)=O)c1 (stereo not given) [Indapamide]	186.6		187.6	195.9	
c1ccc2c(c1)-c1ccc3ccc4cccc5cc-2c1c3c45 [Indeno[1,2,3-cd]pyrene]					collision cross section in nitrogen [5]: 156.7 Å²
CC(C)(C)NC(=O)[C@@H]1CN(Cc2cccnc2)CCN1C[C@@H](O)C[C@@H](Cc1ccccc1)C(=O)N[C@H]1c2ccccc2C[C@H]1O [Indinavir sulfate]		262.9	262.3	246.1	
O=C(O)CCCc1c[nH]c2ccccc12 [Indole-3-butyric acid]	154.8				
O=C(O)C(=O)Cc1c[nH]c2ccccc12 [Indole-3-pyruvic acid]	141.6	139.3			
c1ccc2[nH]ccc2c1 [Indole]	119.5				
c1ccc2c(c1)CCN2 [Indoline]		120.8			

Structure (SMILES)	collision cross section in nitrogen [1] [Å²]	collision cross section in nitrogen [2] [Å²]	collision cross section in nitrogen [3] [Å²]	collision cross section in nitrogen [4] [Å²]	other results
COc1ccc2c(c1)c(CC(=O)O)c(C)n2C(=O)c1ccc(Cl)cc1 [Indomethacin]			181.2	191.6	
COC(=O)N(C(=O)N1CO[C@@]2(C(=O)OC)Cc3cc(Cl)ccc3C2=N1)c1ccc(OC(F)(F)F)cc1 [Indoxacarb]		206.6	205.7	220.4	
O=C(N[C@@H](Cc1ccccc1)[C@@H](O)C(=O)N1C[C@@H](O)[C@@H](O)C1)c1cc2cc(Cl)ccc2[nH]1 [Ingliforib]	206.2	215.9	216	220.4	
Oc1c(I)cc(I)c2cccnc12 [Iodoquinol]	147.3		146.4		
COC(=O)c1ccc(I)cc1S(=O)(=O)NC(=O)Nc1nc(C)nc(OC)n1 [Iodosulfuron methyl ester sodium salt]	196.1	194.5	194.2	195.8	
CCC(Cc1c(I)cc(I)c(N)c1I)C(=O)O (stereo not given) [Iopanoic acid]					collision cross section in nitrogen [5]: 171.5 Å²
CC(C)C1CCC(Cc2ccc(Cl)cc2)C1(O)Cn1cncn1 (stereo not given) [Ipconazole]		173.8	173.8	179.6	
Cc1ccc(C(C)NC(=O)[C@@H](NC(=O)OC(C)C)C(C)C)cc1 (stereo not given in full) [Iprovalicarb]		184.2		183.5	
CC(C)(C)c1cc(CCC(=O)OCC(COC(=O)CCc2cc(C(C)(C)C)c(O)c(C(C)(C)C)c2)(COC(=O)CCc2cc(C(C)(C)C)c(O)c(C(C)(C)C)c2)COC(=O)CCc2cc(C(C)(C)C)c(O)c(C(C)(C)C)c2)cc(C(C)(C)C)c1O [Irganox 1010]	354.9			354.9	collision cross section in nitrogen [5]: 355.6 Å²
CCOP(=S)(OCC)Oc1nc(Cl)n(C(C)C)n1 [Isazofos]			166.9	174.8	
CCC(=O)O[C@H]1C[C@@H]2CC[C@@]1(C)C2(C)C [Isobornyl propanoate]	155.8				
COP(N)(=S)Oc1ccccc1C(=O)OC(C)C (stereo not given) [Isocarbophos]				168.6	
CCOP(=S)(NC(C)C)Oc1ccccc1C(=O)OC(C)C (stereo not given) [Isofenphos]	173.7			184.2	
CC(=O)C(C)=CC1C(C)=CCCC1(C)C (stereo not drawn) [Isomethyl-alpha-ionone]	155				
NNC(=O)c1ccncc1 [Isoniazid]	125.3				
CC(C)CCCCCCCCCCCCCCC(=O)O [Isooctadecanoic acid]	177.8				
CC1(C)CC(N)CC(C)(CN)C1 (stereo not given) [Isophorone diamine]			142.3		
NNC(=O)c1cccc(C(=O)NN)c1 [Isophthalyl dihydrazide]	145		149.1		
